From patent publication US20240247266A1, “METHODS AND COMPOSITIONS FOR TREATING AN ANGIOTENSINOGEN- (AGT-) ASSOCIATED DISORDER” (Alnylam Pharmaceuticals, Inc., priority 2021, published 2024)

How the values were obtained:
Type in all cases: in vivo, human
serum AGT = assay: Example 5 (Part E, irbesartan co-administration): serum AGT; conditions: add-on 300 mg orally daily after 800 mg AD-85481
Method: (§1) In a multicenter, randomized, double-blinded, placebo-controlled, single ascending fixed dose study to assess the safety and efficacy of AD-85481 (Zilebesiran) after a single fixed dose administration to subjects having hypertension (ClinicalTrials.gov Identifier: NCT03934307, Part A), a sub-study was performed to assess the safety and tolerability of AD-85481 (Zilebesiran) in hypertensive patients during irbesartan co-administration (NCT03934307, Part E). Briefly, all patients received an open-label single 800 mg fixed dose of AD-85481 by subcutaneous administration on Day 1. On Day 41, patients with a 24-hr mean systolic blood pressure (SBP)≥120 mmHg (N=10) proceeded to receive irbesartan (300 mg oral) once daily from Day 43 to Day 57 for 14 days (FIG. 10).
(§2) The safety and tolerability, change from baseline in serum AGT, and plasma and urine pharmacokinetic parameters were evaluated. Change from baseline in blood pressure was also assessed by 24-hour ABPM.

[1] = system: patients with hypertension; assay: Example 5: blood pressure by 24 hour ABPM with irbesartan add-on; conditions: daily add-on for 2 weeks to zilebesiran 800 mg, Day 43-57
Method: as §1, with “10). The safety and tolerability, change from baseline in serum AGT, and plasma and urine pharmacokinetic parameters were evaluated. Change from baseline in blood pressure was also assessed by 24-hour ABPM. Assessments of AD-85481 also included change from baseline in SBP and DBP determined by 24 hour ambulatory blood pressure monitoring (ABPM).” for “10).”

[2] = system: patients with hypertension; assay: Example 5: safety and tolerability during irbesartan co-administration; conditions: add-on treatment with zilebesiran
Method: as §1, §2
Safety was reported from the start of the study to Day 85. […] There was one mild SAE of acute anemia in the irbesartan add-on group, but was considered not related to study drug, which was a complication of esophagogastroduodenoscopy with biopsy performed during screening prior to dose of zilebesiran.

Question: Which “effect on serum AGT levels” value (serum AGT) does the source give for `CCCCC1=NC2(CCCC2)C(=O)N1Cc1ccc(-c2ccccc2-c2nnn[nH]2)cc1` [irbesartan] here?
Answer: no additional effect

Question: What about the “effect on systolic and diastolic BP (in words)” value [1] of the same compound?
Answer: further reduced systolic and diastolic BP

Question: And the “changes in creatinine or potassium” value [2]?
Answer: without clinically significant changes in creatinine or potassium
